The text below walks through data of publication PMC4578755, “Development of novel cellular histone-binding and chromatin-displacement assays for bromodomain drug discovery” (Epigenetics & Chromatin, 2015).

In general, EC50 refers to the concentration that produces a half-maximal response. The low end stands for greater potency, the high end for weaker potency.

For test [1], the system named is histone H3K23Ac mark in HeLa cells. As to the kind of experiment: H3K23 acetylation in HeLa cells (Western blot, anti-H3K23Ac immunostaining). The test is classed as cell-based. The settings on record: 2 h. Here is the method: Standard IF procedures were used. Briefly, cells were permeabilized (0.5 % Triton X-100 in PBS) for 15 min and incubated with blocking solution (DAKO #X0909) for 30 min. The following primary antibodies were used: goat anti-V5 (Bethyl #A190-119A) 1:200; mouse anti-FLAG (Sigma #F1804) 1:200; rabbit anti-BRD4 (Abcam #ab128874) 1:200; rabbit anti-TRIM24 (Proteintech #14208-1-AP) 1:400; rabbit anti-K3K23Ac (Cell Signaling #8848) 1:200, and mouse anti-histone H3 (Active Motif #39763) 1:4000. Alexa Fluor-conjugated secondary antibodies were from Invitrogen and Hoechst 33342 (Invitrogen, #H3570) was used for nuclei counterstaining (10 µg/ml). For each Alexa fluorochrome, images (4–10 fields per well; 20X magnifications) were acquired using the Operetta High-Content Screening System (PerkinElmer). Image analysis was performed in Harmony software (PerkinElmer) by selecting nuclei and cytoplasm in Hoechst channel. Gating for single cells of flat morphology was done based on nuclei area, roundness and intensity of Hoechst in the nucleus and in the cytoplasm. In every gated cell, the mean signal intensity value for each fluorochrome was calculated separately in nucleus and cytoplasm. The specific nuclear signal was estimated subtracting mean cytoplasmic value from nuclear; and average value was calculated using at least 1000 cells in each well.
On the technique in general: A western blot detects proteins with antibodies after separation by electrophoresis.

For test [2], the target named is T1, GFP-tagged TRIM24 in HeLa cells (Homo sapiens, UniProt O15164).
T1 construct: PB-TRIM24 PHD and bromodomain of TRIM24; expressed in transfected cells; host or cells: HeLa
T1 sequence (O15164 810-1050 limits assumed): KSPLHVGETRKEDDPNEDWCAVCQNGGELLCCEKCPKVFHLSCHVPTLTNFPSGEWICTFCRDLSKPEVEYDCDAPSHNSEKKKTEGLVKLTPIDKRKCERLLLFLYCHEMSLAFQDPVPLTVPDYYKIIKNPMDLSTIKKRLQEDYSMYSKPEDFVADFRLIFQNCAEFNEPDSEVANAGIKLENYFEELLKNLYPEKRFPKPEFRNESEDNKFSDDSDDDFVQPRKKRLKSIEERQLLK
As to the kind of experiment: GFP version of the in situ cell extraction assay. Format: cell-based. The source says:
In an HTS setting, we further simplified the in situ cell extraction procedure by replacing the indirect IF step (e.g., anti-FLAG) with cells engineered to express fluorescent moieties (e.g., GFP) fused to the protein target of interest (Additional file 1: Figure S5). In this format, the assay has minimal time and reagent costs associated with HTS operation, since no further liquid handling or processing steps are needed after detergent extraction and fixation. […] This is particularly noteworthy for two orthogonal assays that monitor either the displacement of TRIM24 from chromatin/nuclear structures or directly measure TRIM24/histone-H3 dissociation in cells.
OV90 or HeLa cells (20,000 cells/100 µL) were seeded into 96-well plates (Corning Costar #3603) using RPMI or DMEM medium, respectively, supplemented with 10 % FBS and grown overnight. Test agents were serially diluted in DMSO (with or without SAHA) to generate 10X master compound plates. From here, 11 µL was transferred into each well containing 100 µL of growth media followed by shaking on a rotation table (15 min, 300 rpm at RT) and incubation at 37 °C for 2 h. Plates were washed once with PBS (150 µL/well) and then with cold, freshly prepared Cytoskeleton (CSK) Buffer (10 mM PIPES, 300 mM Sucrose, 100 mM NaCl, 3 mM MgCl2; pH = 6.8). Immediately thereafter, soluble, non-chromatin-bound proteins were extracted by addition of cold CSK Buffer supplemented with 0.5 % Triton X-100 (150 µL per well) for 10 min at 4 °C followed by 4 % paraformaldehyde fixation (10 min at RT) (Additional file 1: Table S3). […]
number of fields and the number of cells in 96- and 384-well format that is enough for analysis.
Figure S5. HTS-friendly GFP-version of the in situ cell extraction assay. (A) In situ cell extraction […]
cells were treated with TRIM24i in 96-well plate using concentration range from 20 nM to 100
µM. […] EC50 curve was calculated by Harmony software during the scan. […]
Figure S6. […] Extraction buffer was added to the wells and each field of view was monitored every 3 minutes during 15 minutes. […]

Take `O=C(CCCCCCC(=O)Nc1ccccc1)NO` [SAHA, Suberoylanilide Hydroxamic Acid]: in test [1] (3 µM, HeLa control and TRIM24-PB cells), the “H3K23 acetylation (anti-H3K23Ac immunostaining)” value is on record as “maximal H3K23 acetylation”. The “Cellular histone H3K23Ac mark” value in test [1] (HDAC inhibitor treatment, 2 µM, Western blot) is “hyperacetylated”.
Regarding `Cc1nc(S(=O)(=O)Nc2cc3c(cc2Oc2cccc(OCC(C)C)c2)n(C)c(=O)n3C)cn1C` [IACS-6558, N-{1,3-dimethyl-6-[3-(2-methylpropoxy)phenoxy]-2-oxo-2,3-dihydro-1H-1,3-benzodiazol-5-yl}-1,2-dimethyl-1H-imidazole-4-sulfonamide], in test [2] (HeLa cells expressing GFP-tagged TRIM24, 1 h incubation), the EC50 was 2.3 µM. The “Displacement of TRIM24-GFP from chromatin” value in test [2] (after extraction) is reported as “full displacement”. In addition, in test [2] (data not shown), the “Time to displacement of TRIM24-GFP from chromatin” value was at most 1 min.
